Experimental data reported in patent US8158628B2, “Sulfonylated 1,2,3,4-tetrahydropyrrolo[1,2-a]pyrazine compounds and their use as pharmaceuticals” (Gruenenthal GmbH, priority 2009, dated 2012).

Columns and labels:
human B1R = target: T1, human B1R (Homo sapiens, UniProt P46663); test: FLIPR Ca2+ functional assay, B1R antagonism, human B1R in CHO K1 cells; type: cell-based; conditions: test substance 10 μM; hB1R CHO K1 cells; agonist Lys-Des-Arg9 bradykinin at EC80; % of maximum achievable inhibition
T1 construct: expressed in transfected cells; host or cells: CHO K1 cells (Chinese hamster ovary), stably transfected
T1 sequence (P46663 1-353): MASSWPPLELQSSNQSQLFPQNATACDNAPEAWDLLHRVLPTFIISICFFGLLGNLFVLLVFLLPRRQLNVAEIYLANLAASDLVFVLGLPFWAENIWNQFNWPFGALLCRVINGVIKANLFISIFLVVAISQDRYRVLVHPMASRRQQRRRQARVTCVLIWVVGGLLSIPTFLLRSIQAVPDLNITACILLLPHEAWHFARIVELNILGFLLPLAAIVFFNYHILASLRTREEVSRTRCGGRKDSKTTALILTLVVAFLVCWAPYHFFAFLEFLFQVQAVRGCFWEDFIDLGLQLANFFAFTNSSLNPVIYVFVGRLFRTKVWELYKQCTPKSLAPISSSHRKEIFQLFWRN
Method in brief: (§1)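 Stably transfected CHO K1 cells loaded with Fluo-4; Ca2+ fluorescence read on FLIPR (ex 488/em 540 nm). Compound preincubated 10-20 min, then agonist at EC80: Lys-Des-Arg9 bradykinin (human) or Des-Arg9 bradykinin (rat). % inhibition vs maximal inhibition; IC50 from concentration series, n=2-3, N>=2.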

B1R of the rat = target: T2, B1R of the rat (Rattus norvegicus, UniProt P97583); test: FLIPR Ca2+ functional assay, B1R antagonism, rat B1R in CHO K1 cells; type: cell-based; conditions: test substance 10 μM; rB1R CHO K1 cells; agonist Des-Arg9 bradykinin at EC80; % of maximum achievable inhibition
T2 construct: expressed in transfected cells; host or cells: CHO K1 cells (Chinese hamster ovary), stably transfected
T2 sequence (P97583 1-337): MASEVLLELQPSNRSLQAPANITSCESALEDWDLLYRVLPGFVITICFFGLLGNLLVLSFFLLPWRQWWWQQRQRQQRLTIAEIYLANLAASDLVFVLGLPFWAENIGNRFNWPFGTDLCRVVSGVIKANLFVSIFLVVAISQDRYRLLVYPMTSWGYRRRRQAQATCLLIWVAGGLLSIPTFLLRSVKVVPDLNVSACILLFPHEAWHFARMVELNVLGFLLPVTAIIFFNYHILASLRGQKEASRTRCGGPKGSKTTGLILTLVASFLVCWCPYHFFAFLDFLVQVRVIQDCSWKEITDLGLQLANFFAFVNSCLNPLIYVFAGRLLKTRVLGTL
Method in brief: as §1

Row | inhibition at 10 µM (human B1R) [%] | inhibition at 10 µM (B1R of the rat) [%] | Compound
1 | 69.6 | 58.8 | COc1cc(C)c(S(=O)(=O)N2CCn3cccc3C2CC(=O)N2CCC3(CCN(C4CC4)C3)C2)c(C)c1 (stereo not shown) [Example 3, 1-(7-Cyclopropyl-2,7-diazaspiro[4.4]nonan-2-yl)-2-(2-(4-methoxy-2,6-dimethylphenylsulfonyl)-1,2,3,4-tetrahydropyrrolo[1,2-a]pyrazin-1-yl)ethanone]
2 | 99.9 | 98.9 | COc1cc(C)c(S(=O)(=O)N2CCn3cccc3C2COCC(=O)N2CCN(C3CCN(C)CC3)CC2)c(C)c1 (stereo not shown) [Example 2, 2-((2-(4-Methoxy-2,6-dimethylphenylsulfonyl)-1,2,3,4-tetrahydropyrrolo[1,2-a]pyrazin-1-yl)methoxy)-1-(4-(1-methylpiperidin-4-yl)piperazin-1-yl)ethanone]
3 | 99.6 | 99.1 | CCC(C)NCc1ccc2c(c1)CCCC2NC(=O)CC1c2cccn2CCN1S(=O)(=O)c1ccc2cc(OC)ccc2c1 (stereo not shown) [Example 125, 2-[2-[(6-Methoxy-naphthalen-2-yl)sulfonyl]-1,2,3,4-tetrahydro-pyrrolo[1,2-a]pyrazin-1-yl]-N-[6-[(1-methyl-propylamino)-methyl]-1,2,3,4-tetrahydro-naphthalen-1-yl]-acetamide]
4 | 99.9 | 98.3 | Cc1cccc(Cl)c1S(=O)(=O)N1CCn2cccc2C1COCC(=O)N1CCC2(CC1)CCN(c1ccncc1)CC2 (stereo not shown) [Example 15, 2-((2-(2-Chloro-6-methylphenylsulfonyl)-1,2,3,4-tetrahydropyrrolo[1,2-a]pyrazin-1-yl)methoxy)-1-(9-(pyridin-4-yl)-3,9-diazaspiro[5.5]undecan-3-yl)ethanone]
5 | 97.7 | 101 | COc1cc(C)c(S(=O)(=O)N2CCn3cccc3C2COCC(=O)N2CCC(Cc3ccncc3)CC2)c(C)c1 (stereo not shown) [Example 35, 2-[[2-[(4-Methoxy-2,6-dimethyl-phenyl)sulfonyl]-1,2,3,4-tetrahydro-pyrrolo[1,2-a]pyrazin-1-yl]-methoxy]-1-[4-(pyridin-4-yl-methyl)-piperidin-1-yl]-ethanone]
6 | 100 | 103 | Cc1ccc(S(=O)(=O)N2CCn3cccc3C2CC(=O)NC2CCc3cc(CN(C)C)ccc3C2)cc1 (stereo not shown) [Example 58, N-[6-(Dimethylaminomethyl)-1,2,3,4-tetrahydro-naphthalen-2-yl]-2-[2-(p-tolylsulfonyl)-1,2,3,4-tetrahydro-pyrrolo[1,2-a]pyrazin-1-yl]-acetamide]
7 | 99.9 | 114 | COc1cc(C)c(S(=O)(=O)N2CCn3cccc3C2COCC(=O)N2CCC(OCCN3CCCC3)(c3cccnc3)CC2)c(C)c1 (stereo not shown) [Example 24, 2-((2-(4-Methoxy-2,6-dimethylphenylsulfonyl)-1,2,3,4-tetrahydropyrrolo[1,2-a]pyrazin-1-yl)methoxy)-1-(4-(pyridin-3-yl)-4-(2-(pyrrolidin-1-yl)ethoxy)piperidin-1-yl)ethanone]
8 | 15.7 | 58.1 | COc1cc(C)c(S(=O)(=O)N2CCn3cccc3C2COCC(=O)NC2CCN(c3ccc(C(F)(F)F)cn3)C2)c(C)c1 (stereo not shown) [Example 33, 2-[[2-[(4-Methoxy-2,6-dimethyl-phenyl)sulfonyl]-1,2,3,4-tetrahydro-pyrrolo[1,2-a]pyrazin-1-yl]-methoxy]-N-[1-[5-(trifluoromethyl)-pyridin-2-yl]-pyrrolidin-3-yl]-acetamide]

Second part, the compound before the results:

Row | Compound | inhibition at 10 µM (human B1R) [%] | inhibition at 10 µM (B1R of the rat) [%]
9 | CCC(C)NCc1ccc2c(c1)CCC(NC(=O)CC1c3cccn3CCN1S(=O)(=O)c1ccc(C)cc1)C2 (stereo not shown) [Example 62, N-[6-[(1-Methyl-propylamino)-methyl]-1,2,3,4-tetrahydro-naphthalen-2-yl]-2-[2-(p-tolylsulfonyl)-1,2,3,4-tetrahydro-pyrrolo[1,2-a]pyrazin-1-yl]-acetamide] | 99.2 | 98.4
10 | Cc1ccc(S(=O)(=O)N2CCn3cccc3C2CC(=O)N[C@@H]2CCCc3cc(CN4CCC(F)CC4)ccc32)cc1 (stereo partly drawn) [Example 44, N-[(1R)-6-[(4-Fluoro-piperidin-1-yl)-methyl]-1,2,3,4-tetrahydro-naphthalen-1-yl]-2-[2-(p-tolylsulfonyl)-1,2,3,4-tetrahydro-pyrrolo[1,2-a]pyrazin-1-yl]-acetamide] | 99.3 | 104
11 | Cc1ccc(S(=O)(=O)N2CCn3cccc3C2CC(=O)NC2CCCc3cc(CN4CCOCC4)ccc32)cc1 (stereo not shown) [Example 54, N-[6-(Morpholin-4-yl-methyl)-1,2,3,4-tetrahydro-naphthalen-1-yl]-2-[2-(p-tolylsulfonyl)-1,2,3,4-tetrahydro-pyrrolo[1,2-a]pyrazin-1-yl]-acetamide] | 99 | 100
12 | Cc1ccc(S(=O)(=O)N2CCn3cccc3C2CC(=O)NC2CCc3cc(CN(C)C(C)(C)C)ccc3C2)cc1 (stereo not shown) [Example 73, N-[6-[(tert-Butyl-methyl-amino)-methyl]-1,2,3,4-tetrahydro-naphthalen-2-yl]-2-[2-(p-tolylsulfonyl)-1,2,3,4-tetrahydro-pyrrolo[1,2-a]pyrazin-1-yl]-acetamide] | 99.8 | 103
13 | CC(C)(C)NCc1ccc2c(c1)CCCC2NC(=O)CC1c2cccn2CCN1S(=O)(=O)c1cccc(C(F)(F)F)c1 (stereo not shown) [Example 82, N-[6-[(tert-Butylamino)-methyl]-1,2,3,4-tetrahydro-naphthalen-1-yl]-2-[2-[[3-(trifluoromethyl)phenyl]sulfonyl]-1,2,3,4-tetrahydro-pyrrolo[1,2-a]pyrazin-1-yl]-acetamide] | 99.9 | 101
14 | COc1cc(C)c(S(=O)(=O)N2CCn3cccc3C2COCC(=O)N2[C@@H]3CC[C@H]2C[C@H](Oc2ccncc2)C3)c(C)c1 (stereo partly drawn) [Example 23, 2-((2-(4-Methoxy-2,6-dimethylphenylsulfonyl)-1,2,3,4-tetrahydropyrrolo[1,2-a]pyrazin-1-yl)methoxy)-1-((1R,3S,5S)-3-(pyridin-4-yloxy)-8-azabicyclo[3.2.1]octan-8-yl)ethanone] | 100 | 108
15 | CCC(C)NCc1ccc2c(c1)CCCC2NC(=O)CC1c2cccn2CCN1S(=O)(=O)c1ccc(C)cc1 (stereo not shown) [Example 126, N-[6-[(1-Methyl-propylamino)-methyl]-1,2,3,4-tetrahydro-naphthalen-1-yl]-2-[2-(p-tolylsulfonyl)-1,2,3,4-tetrahydro-pyrrolo[1,2-a]pyrazin-1-yl]-acetamide] | 99.9 | 102
16 | CN(C)Cc1ccc2c(c1)CCCC2NC(=O)CC1c2cccn2CCN1S(=O)(=O)c1cccc(C(F)(F)F)c1 (stereo not shown) [Example 124, N-[6-(Dimethylaminomethyl)-1,2,3,4-tetrahydro-naphthalen-1-yl]-2-[2-[[3-(trifluoromethyl)phenyl]sulfonyl]-1,2,3,4-tetrahydro-pyrrolo[1,2-a]pyrazin-1-yl]-acetamide] | 99.7 | 97.3
17 | CCC(C)NCc1ccc2c(c1)CCC(NC(=O)CC1c3cccn3CCN1S(=O)(=O)c1cccc(C(F)(F)F)c1)C2 (stereo not shown) [Example 65, N-[6-[(1-Methyl-propylamino)-methyl]-1,2,3,4-tetrahydro-naphthalen-2-yl]-2-[2-[[3-(trifluoromethyl)phenyl]sulfonyl]-1,2,3,4-tetrahydro-pyrrolo[1,2-a]pyrazin-1-yl]-acetamide] | 99.1 | 98.7
